Laboratory results as given in patent US10131652B2, “Pyrimidinyloxy benzene derivatives as herbicides” (E. I. DU PONT DE NEMOURS AND COMPANY, priority 2014, dated 2018).

Experiments:
Type in all cases: in vivo
[1] = test system: barnyardgrass (Echinochloa crus-galli); assay: Test B pre-/postemergence plant response; settings: for Barnyardgrass plant response rating: 0 to 100 scale (0 no effect, 100 complete control)
Procedure, shortened: (§1)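 Visual injury scores on a 0–100 scale (100 = complete control) relative to untreated plants, taken about 10 days post-treatment in greenhouse. Treatments were a directed preemergence soil spray and a postemergence spray at one- to two-leaf stage, using surfactant-containing solvent formulation.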

corn (Zea mays) = assay: Test B pre-/postemergence plant response; settings: for Corn plant response rating: 0 to 100 scale (0 no effect, 100 complete control)
Procedure, shortened: as §1

[2] = test system: giant foxtail (Setaria faberii); assay: Test B pre-/postemergence plant response; settings: for Foxtail, Giant plant response rating: 0 to 100 scale (0 no effect, 100 complete control)
Procedure, shortened: as §1

[3] = test system: large (Lg) crabgrass (Digitaria sanguinalis); assay: Test B pre-/postemergence plant response; settings: for Crabgrass, Large plant response rating: 0 to 100 scale (0 no effect, 100 complete control)
Procedure, shortened: as §1

[4] = test system: morningglory (Ipomoea spp.); assay: Test B pre-/postemergence plant response; settings: for Morningglory plant response rating: 0 to 100 scale (0 no effect, 100 complete control)
Procedure, shortened: as §1

[5] = test system: pigweed (Amaranthus retroflexus); assay: Test B pre-/postemergence plant response; settings: for Pigweed plant response rating: 0 to 100 scale (0 no effect, 100 complete control)
Procedure, shortened: as §1

[6] = test system: velvetleaf (Abutilon theophrasti); assay: Test B pre-/postemergence plant response; settings: for Velvetleaf plant response rating: 0 to 100 scale (0 no effect, 100 complete control)
Procedure, shortened: as §1

[7] = test system: wheat (Triticum aestivum); assay: Test B pre-/postemergence plant response; settings: for Wheat plant response rating: 0 to 100 scale (0 no effect, 100 complete control)
Procedure, shortened: as §1

[8] = test system: barnyardgrass (Echinochloa crus-galli); assay: Test C flooded paddy test plant response; settings: Flood, 250 g ai/ha; scale of 0 to 100 where 0 is no effect and 100 is complete control; 13 to 15 days
Procedure, shortened: (§2)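 Readout is a visual 0–100 score (100 = complete control) versus controls at 13–15 days. Plants at 2-leaf stage, flooded to 3 cm, treated through paddy water.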

[9] = test system: ducksalad (Heteranthera limosa); assay: Test C flooded paddy test plant response; settings: Flood, 250 g ai/ha; scale of 0 to 100 where 0 is no effect and 100 is complete control; 13 to 15 days
Procedure, shortened: as §2

rice (Oryza sativa) = assay: Test C flooded paddy test plant response; settings: Flood, 250 g ai/ha; scale of 0 to 100 where 0 is no effect and 100 is complete control; 13 to 15 days
Procedure, shortened: as §2

[10] = test system: small-flower umbrella sedge (Cyperus difformis); assay: Test C flooded paddy test plant response; settings: Flood, 250 g ai/ha; scale of 0 to 100 where 0 is no effect and 100 is complete control; 13 to 15 days
Procedure, shortened: as §2

[11] = 125 g ai/ha, postemergence, 0 to 100 scale, 0 no effect, 100 complete control
[12] = 500 g ai/ha, postemergence, 0 to 100 scale, 0 no effect, 100 complete control
[13] = Preemergence, 500 g ai/ha, 0 to 100 scale where 0 is no effect and 100 is complete control

Structure (SMILES)	Plant response rating, Barnyardgrass [1, 11]	Plant response rating, Barnyardgrass [1, 12]	Barnyardgrass plant response rating ([1]; Preemergence, 125 g ai/ha)	Plant response rating, Barnyardgrass [1, 13]	Plant response rating, Corn (corn (Zea mays); [11])	Plant response rating, Corn (corn (Zea mays); [12])	Corn plant response rating (corn (Zea mays); Preemergence, 125 g ai/ha)	Plant response rating, Corn (corn (Zea mays); [13])	Plant response rating, Foxtail, Giant [2, 11]	Plant response rating, Foxtail, Giant [2, 12]	Foxtail, Giant plant response rating ([2]; Preemergence, 125 g ai/ha)	Plant response rating, Foxtail, Giant [2, 13]	Plant response rating, Crabgrass, Large [3, 11]	Plant response rating, Crabgrass, Large [3, 12]	Crabgrass, Large plant response rating ([3]; Preemergence, 125 g ai/ha)	Plant response rating, Crabgrass, Large [3, 13]	Plant response rating, Morningglory [4, 11]	Plant response rating, Morningglory [4, 12]	Morningglory plant response rating ([4]; Preemergence, 125 g ai/ha)	Plant response rating, Morningglory [4, 13]	also measured
N#Cc1cccc(Oc2ncc(Cl)cn2)c1-c1ccc(Cl)cn1 [Compound 202]	10	40	10	80	0	30	0	0	30	80	70	100	10	70	90	100	10	40	0	20	Plant response rating, Pigweed [5, 11]: 90; Plant response rating, Pigweed [5, 12]: 100; Pigweed plant response rating ([5]; Preemergence, 125 g ai/ha): 100; Plant response rating, Pigweed [5, 13]: 100; Plant response rating, Velvetleaf [6, 11]: 10; Plant response rating, Velvetleaf [6, 12]: 30; Velvetleaf plant response rating ([6]; Preemergence, 125 g ai/ha): 0; Plant response rating, Velvetleaf [6, 13]: 60; Plant response rating, Wheat [7, 11]: 0; Plant response rating, Wheat [7, 12]: 0; Wheat plant response rating ([7]; Preemergence, 125 g ai/ha): 0; Plant response rating, Wheat [7, 13]: 20; Barnyardgrass plant response rating [8]: 0; Ducksalad plant response rating [9]: 80; Rice plant response rating (rice (Oryza sativa)): 0; Sedge, Umbrella plant response rating [10]: 80
Clc1ccc(-c2ccc(Br)cc2Oc2ncc(Cl)cn2)nc1 [Compound 203]	0	0	0	0	0	0	0	0	0	0	0	0	0	0	0	0	0	0	0	0	Plant response rating, Pigweed [5, 11]: 0; Plant response rating, Pigweed [5, 12]: 0; Pigweed plant response rating ([5]; Preemergence, 125 g ai/ha): 0; Plant response rating, Pigweed [5, 13]: 0; Plant response rating, Velvetleaf [6, 11]: 0; Plant response rating, Velvetleaf [6, 12]: 0; Velvetleaf plant response rating ([6]; Preemergence, 125 g ai/ha): 0; Plant response rating, Velvetleaf [6, 13]: 0; Plant response rating, Wheat [7, 11]: 0; Plant response rating, Wheat [7, 12]: 0; Wheat plant response rating ([7]; Preemergence, 125 g ai/ha): 0; Plant response rating, Wheat [7, 13]: 0; Barnyardgrass plant response rating [8]: 0; Ducksalad plant response rating [9]: 0; Rice plant response rating (rice (Oryza sativa)): 0; Sedge, Umbrella plant response rating [10]: 0
N#Cc1cccc(Oc2ncc(Br)cn2)c1-c1ccc(Cl)cn1 [Compound 204]	0	10	0	30	0	0	0	0	0	30	60	100	10	40	90	100	0	10	0	10	Plant response rating, Pigweed [5, 11]: 50; Plant response rating, Pigweed [5, 12]: 90; Pigweed plant response rating ([5]; Preemergence, 125 g ai/ha): 100; Plant response rating, Pigweed [5, 13]: 100; Plant response rating, Velvetleaf [6, 11]: 0; Plant response rating, Velvetleaf [6, 12]: 10; Velvetleaf plant response rating ([6]; Preemergence, 125 g ai/ha): 0; Plant response rating, Velvetleaf [6, 13]: 60; Plant response rating, Wheat [7, 11]: 0; Plant response rating, Wheat [7, 12]: 0; Wheat plant response rating ([7]; Preemergence, 125 g ai/ha): 0; Plant response rating, Wheat [7, 13]: 0; Barnyardgrass plant response rating [8]: 0; Ducksalad plant response rating [9]: 0; Rice plant response rating (rice (Oryza sativa)): 0; Sedge, Umbrella plant response rating [10]: 0
Clc1ccc(-c2c(I)cccc2Oc2ncc(Cl)cn2)nc1 [Compound 205]	0	10	0	10	0	10	0	0	0	20	20	70	10	20	30	70	0	10	0	0	Plant response rating, Pigweed [5, 11]: 60; Plant response rating, Pigweed [5, 12]: 90; Pigweed plant response rating ([5]; Preemergence, 125 g ai/ha): 10; Plant response rating, Pigweed [5, 13]: 90; Plant response rating, Velvetleaf [6, 11]: 0; Plant response rating, Velvetleaf [6, 12]: 10; Velvetleaf plant response rating ([6]; Preemergence, 125 g ai/ha): 0; Plant response rating, Velvetleaf [6, 13]: 0; Plant response rating, Wheat [7, 11]: 0; Plant response rating, Wheat [7, 12]: 0; Wheat plant response rating ([7]; Preemergence, 125 g ai/ha): 0; Plant response rating, Wheat [7, 13]: 0; Barnyardgrass plant response rating [8]: 0; Ducksalad plant response rating [9]: 0; Rice plant response rating (rice (Oryza sativa)): 0; Sedge, Umbrella plant response rating [10]: 0
Fc1cnc(Oc2ccccc2-c2cc(C(F)(F)F)on2)nc1 [Compound 206]	0	10	0	30	0	0	0	0	0	20	10	60	10	20	10	60	20	30	0	0	Plant response rating, Pigweed [5, 11]: 40; Plant response rating, Pigweed [5, 12]: 70; Pigweed plant response rating ([5]; Preemergence, 125 g ai/ha): 50; Plant response rating, Pigweed [5, 13]: 80; Plant response rating, Velvetleaf [6, 11]: 30; Plant response rating, Velvetleaf [6, 12]: 60; Velvetleaf plant response rating ([6]; Preemergence, 125 g ai/ha): 30; Plant response rating, Velvetleaf [6, 13]: 40; Plant response rating, Wheat [7, 11]: 0; Plant response rating, Wheat [7, 12]: 0; Wheat plant response rating ([7]; Preemergence, 125 g ai/ha): 0; Plant response rating, Wheat [7, 13]: 0; Barnyardgrass plant response rating [8]: 0; Ducksalad plant response rating [9]: 70; Rice plant response rating (rice (Oryza sativa)): 0; Sedge, Umbrella plant response rating [10]: 70
N#Cc1cccc(Oc2ncc(F)cn2)c1-c1ccc(Cl)cn1 [Compound 207]	0	70	10	90	0	0	0	0	0	30	70	100	0	30	100	100	10	30	0	30	Plant response rating, Pigweed [5, 11]: 70; Plant response rating, Pigweed [5, 12]: 100; Pigweed plant response rating ([5]; Preemergence, 125 g ai/ha): 90; Plant response rating, Pigweed [5, 13]: 100; Plant response rating, Velvetleaf [6, 11]: 10; Plant response rating, Velvetleaf [6, 12]: 60; Velvetleaf plant response rating ([6]; Preemergence, 125 g ai/ha): 0; Plant response rating, Velvetleaf [6, 13]: 30; Plant response rating, Wheat [7, 11]: 0; Plant response rating, Wheat [7, 12]: 0; Wheat plant response rating ([7]; Preemergence, 125 g ai/ha): 0; Plant response rating, Wheat [7, 13]: 0; Barnyardgrass plant response rating [8]: 0; Ducksalad plant response rating [9]: 30; Rice plant response rating (rice (Oryza sativa)): 0; Sedge, Umbrella plant response rating [10]: 30
